Measurements as given in US20120027857A1, “CONTROLLED RELEASE PHARMACEUTICAL CO[…]-[…]-VENLAFAXINE” (LEK PHARMACEUTICALS D.D., priority 2008, published 2012).

Key:
[1] = pH of 1% water solution; assay type: physicochemical
[2] = Dissolution test, USP apparatus 1, 900 ml water with 0.9% NaCl, 150 rpm, 37°C, HPLC; assay type: physicochemical; details: compared to O-desmethyl-venlafaxine succinate from the tablet having the same composition
Experimental: Dissolution properties were evaluated by in vivo relevant dissolution test. USP apparatus 1 was used for testing. 900 ml of water with 0.9% NaCl is placed in the dissolution vessel, mixed with a paddle at 150 rpm and kept at 37±0.5° C. Samples were taken from the dissolution vessel at regular time intervals and the concentrations of O-desmethyl-venlafaxine were analyzed by HPLC.
Pharmaceutical compositions might be optionally placed for 60 minutes in 900 ml 0.01 M HCl before being placed in 900 ml water with 0.9% NaCl.

## CN(C)CC(c1ccc(O)cc1)C1(O)CCCCC1.O=C(O)c1cc(=O)[nH]c(=O)[nH]1 (stereo not drawn) [O-desmethyl-venlafaxine orotate]
[1]
  pH (1% water solution): 3.3
[2]
  dissolution of salt from matrix tablet: much faster

## CN(C)CC(c1ccc(O)cc1)C1(O)CCCCC1.O=C[C@H](O)[C@@H](O)[C@H](O)[C@H](O)C(=O)O (stereo not drawn) [O-desmethyl-venlafaxine glucuronate]
[1]
  pH (1% water solution): 6.14
